Experiments:
[1] = molecular target: PI3K (Homo sapiens, UniProt P42336); test: Fluorescence polarization assay for PI3K; type: biochemical; conditions: PI3Kα; read-out: PI3Kα IC50;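 note: PI3K kinase reaction on PIP2 with ATP, 30-60 min, product sensed by GST-GRP with red probe in fluorescence polarization (mP), controls without enzyme and at zero time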
[2] = test system: breast line MDA468; test: In vitro cell culture growth assay (MTS), MDA468; type: cell-based, human; conditions: MDA468 cells, three days after drug treatment
Method in brief: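 MDA468 or LNCap cells received inhibitors one day after plating and were grown for three days. Viable cell density read by MTS conversion, absorbance 490 nm, expressed as percent of control growth versus vehicle-treated cells on the same plate.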

[3] = test system: prostate line LNCap; test: In vitro cell culture growth assay (MTS), LNCap; type: cell-based, human; conditions: LNCap cells, three days after drug treatment

Sequence of PI3K (P42336 whole entry): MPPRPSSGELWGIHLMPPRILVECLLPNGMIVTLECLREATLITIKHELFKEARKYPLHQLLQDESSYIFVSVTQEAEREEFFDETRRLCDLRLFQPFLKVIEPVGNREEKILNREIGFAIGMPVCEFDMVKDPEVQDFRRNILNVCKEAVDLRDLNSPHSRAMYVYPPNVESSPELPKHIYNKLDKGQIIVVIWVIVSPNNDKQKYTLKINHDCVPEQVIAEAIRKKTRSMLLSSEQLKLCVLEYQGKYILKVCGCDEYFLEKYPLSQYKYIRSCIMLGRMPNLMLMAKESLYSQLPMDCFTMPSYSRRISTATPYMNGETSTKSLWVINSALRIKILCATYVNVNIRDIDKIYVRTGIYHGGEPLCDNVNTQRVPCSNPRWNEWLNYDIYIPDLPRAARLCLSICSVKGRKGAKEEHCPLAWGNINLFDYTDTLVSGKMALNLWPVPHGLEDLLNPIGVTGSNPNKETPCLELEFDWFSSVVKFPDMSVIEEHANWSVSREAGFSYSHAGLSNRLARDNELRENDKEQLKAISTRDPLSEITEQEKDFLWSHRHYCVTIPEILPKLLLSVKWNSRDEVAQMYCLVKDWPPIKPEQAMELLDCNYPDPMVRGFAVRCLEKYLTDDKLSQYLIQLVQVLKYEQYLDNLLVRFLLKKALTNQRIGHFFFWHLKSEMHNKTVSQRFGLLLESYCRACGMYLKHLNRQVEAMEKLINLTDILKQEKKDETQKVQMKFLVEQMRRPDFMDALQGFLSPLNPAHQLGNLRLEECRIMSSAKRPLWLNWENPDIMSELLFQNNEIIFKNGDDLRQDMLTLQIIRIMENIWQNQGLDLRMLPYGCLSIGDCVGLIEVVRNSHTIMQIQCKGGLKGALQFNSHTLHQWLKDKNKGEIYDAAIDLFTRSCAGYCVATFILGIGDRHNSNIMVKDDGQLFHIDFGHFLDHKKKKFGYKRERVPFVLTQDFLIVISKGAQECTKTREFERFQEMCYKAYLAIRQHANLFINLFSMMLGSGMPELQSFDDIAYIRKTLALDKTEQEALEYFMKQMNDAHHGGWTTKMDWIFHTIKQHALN
Sequence of PI3K (P27986 whole entry partner): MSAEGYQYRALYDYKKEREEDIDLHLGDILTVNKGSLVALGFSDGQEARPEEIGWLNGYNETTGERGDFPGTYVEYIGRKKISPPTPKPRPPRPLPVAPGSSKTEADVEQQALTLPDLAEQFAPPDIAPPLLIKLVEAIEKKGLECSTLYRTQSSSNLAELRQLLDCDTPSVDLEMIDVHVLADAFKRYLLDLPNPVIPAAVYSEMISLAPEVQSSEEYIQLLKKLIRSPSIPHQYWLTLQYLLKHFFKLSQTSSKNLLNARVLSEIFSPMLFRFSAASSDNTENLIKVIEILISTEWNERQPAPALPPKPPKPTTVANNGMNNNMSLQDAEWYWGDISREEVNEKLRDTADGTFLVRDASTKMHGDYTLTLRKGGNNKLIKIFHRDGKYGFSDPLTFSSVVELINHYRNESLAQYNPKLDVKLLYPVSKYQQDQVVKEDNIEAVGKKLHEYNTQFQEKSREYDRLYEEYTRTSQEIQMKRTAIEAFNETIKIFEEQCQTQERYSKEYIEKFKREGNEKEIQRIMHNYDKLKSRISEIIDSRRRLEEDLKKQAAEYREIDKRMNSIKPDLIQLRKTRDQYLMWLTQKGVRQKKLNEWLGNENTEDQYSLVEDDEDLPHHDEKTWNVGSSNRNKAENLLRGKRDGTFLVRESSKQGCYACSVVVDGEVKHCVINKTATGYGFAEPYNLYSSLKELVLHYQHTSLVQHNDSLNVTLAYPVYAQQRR

IC50 [1] [nM] | IC50 ([3]; Homo sapiens, LNCaP, 72 h) [nM] | IC50 [3] [nM] | SMILES | IC50 ([2]; Homo sapiens, 72 h) [nM] | IC50 [2] [nM]
113 | 70 | – | CC(C)(C)OC(=O)N1CCC(n2ncc3c(N4CCOCC4)nc(-c4ccc(NC(=O)Nc5ccon5)cc4)nc32)CC1 [Compound 882, tert-butyl 4-(6-{4-[(isoxazol-3-ylcarbamoyl)amino]phenyl}-4-morpholin-4-yl-1H-pyrazolo[3,4-d]pyrimidin-1-yl)piperidine-1-carboxylate] | 490 | –
34 | – | < 27 | CNC(=O)Nc1ccc(-c2nc(N3CCOCC3)c3cnn(C4CCN(Cc5ccc(F)cc5)CC4)c3n2)cc1 [Compound 671, 1-(4-{1-[1-(4-fluorobenzyl)piperidin-4-yl]-4-morpholin-4-yl-1H-pyrazolo[3,4-d]pyrimidin-6-yl}phenyl)-3-methylurea] | – | 210
590 | 320 | – | O=C(NCC(F)(F)F)Nc1ccc(-c2nc(N3CCOCC3)c3cnn(C4CCN(Cc5ccccc5)CC4)c3n2)cc1 [Example 289, 1-{4-[1-(1-benzylpiperidin-4-yl)-4-morpholin-4-yl-1H-pyrazolo[3,4-d]pyrimidin-6-yl]phenyl}-3-(2,2,2-trifluoroethyl)urea] | 1300 | –
64 | < 27 | – | CNC(=O)Nc1ccc(-c2nc(N3CCOCC3)c3cnn(C4CCN(Cc5ccccn5)CC4)c3n2)cc1 [Compound 575, 1-methyl-3-(4-{4-morpholin-4-yl-1-[1-(pyridin-2-ylmethyl)piperidin-4-yl]-1H-pyrazolo[3,4-d]pyrimidin-6-yl}phenyl)urea] | 500 | –
446 | 400 | – | CCCCNC(=O)Nc1ccc(-c2nc(N3CCOCC3)c3cnn(C4CCN(C(=O)c5cccnc5)CC4)c3n2)cc1 [Example 216, 1-butyl-3-(4-{4-morpholin-4-yl-1-[1-(pyridin-3-ylcarbonyl)piperidin-4-yl]-1H-pyrazolo[3,4-d]pyrimidin-6-yl}phenyl)urea] | 1500 | –
384 | 4800 | – | CNc1ccc(-c2nc(N3CCOCC3)c3cnn(-c4ccccc4)c3n2)cc1 [Compound 128] | 60000 | –
32 | 120 | – | CC(C)(C)COC(=O)N1CCC(n2ncc3c(N4CCOCC4)nc(-c4ccc(NC(=O)Nc5cccnc5)cc4)nc32)CC1 [Compound 877, 2,2-dimethylpropyl 4-(4-morpholin-4-yl-6-{4-[(pyridin-3-ylcarbamoyl)amino]phenyl}-1H-pyrazolo[3,4-d]pyrimidin-1-yl)piperidine-1-carboxylate] | 400 | –
72 | < 27 | – | CNC(=O)Nc1ccc(-c2nc(N3CCOCC3)c3cnn(C4CCN(C(=O)c5cccc(C)c5)CC4)c3n2)cc1 [Compound 612, 1-methyl-3-(4-{1-[1-(3-methylbenzoyl)piperidin-4-yl]-4-morpholin-4-yl-1H-pyrazolo[3,4-d]pyrimidin-6-yl}phenyl)urea] | 27 | –
179 | 3000 | – | NC(=O)Nc1ccc(-c2nc(N3CCOCC3)c3cnn(C4CCN(C(=O)c5cccnc5)CC4)c3n2)cc1 [Example 301, 1-(4-{4-morpholin-4-yl-1-[1-(pyridin-3-ylcarbonyl)piperidin-4-yl]-1H-pyrazolo[3,4-d]pyrimidin-6-yl}phenyl)urea] | 1800 | –
549 | 7600 | – | CC(C)(C)OC(=O)N1CCC[C@H](n2ncc3c(N4CCOCC4)nc(-c4ccc(N)cc4)nc32)C1 [Compound 870, tert-butyl (3S)-3-[6-(4-aminophenyl)-4-morpholin-4-yl-1H-pyrazolo[3,4-d]pyrimidin-1-yl]piperidine-1-carboxylate] | 26000 | –
3510 | 14000 | – | O=C1CCCN1CCn1ncc2c(N3CCOCC3)nc(-c3ccc4[nH]ccc4c3)nc21 [Compound 161] | 60000 | –
3870 | 3000 | – | O=C(NC1CCCC1)c1ccc(-c2nc(N3CCOCC3)c3cnn(C4CCN(Cc5ccccc5)CC4)c3n2)cc1 [Example 70] | 15000 | –
